Where “and” joins values, the source holds several entries; their conditions need not be identical. Equal entries are not always repeated. After the bases stand the sugars from the 5' end (letter, count) and the backbone: PS all phosphorothioate, else s phosphorothioate and o phosphodiester by linkage. Methylation of C is not given here. e = 2'-O-(2-methoxyethyl) (MOE); d = 2'-deoxy (DNA)
Target: DGAT2
Conditions: ASO

| Sequence | target mRNA inhibition (HepG2, 0.12 µM) | target mRNA inhibition (HepG2, 2.5 µM) | target mRNA inhibition (HepG2, 10 µM) | target mRNA inhibition (HepG2, 20 µM) |
| --- | --- | --- | --- | --- |
| CTGGAACTTCTTCTGGACCC (sugars e5 d10 e5, PS) | 25% | – | – | – |
| GTTTAGGCTATGGTCTGAGC (sugars e5 d10 e5, PS) | – | 85% and 75% | 92% | – |
| ACAACAGCAAATATACACCA (sugars e5 d10 e5, PS) | – | 87% | 56% | – |
| AGCCAGGTAAGGCCGTATGC (sugars e5 d10 e5, PS) | 70% | – | – | – |
| GTGATTATTCTAAAACTCAA (sugars e5 d10 e5, PS) | – | 34% | 71% | – |
| ATACCTTATCTTTGTCCACA (sugars e5 d10 e5, PS) | – | 79% | 94% | – |
| GTTGGTCTTTTTGGCTGCCC (sugars e5 d10 e5, PS) | – | 77% and 67% | 88% and 86% | – |
| TTTCTTATCTTCAATCCTCA (sugars e5 d10 e5, PS) | – | 56% | 90% | – |
| GATGCTCCAGGTGGGCCAGA (sugars e5 d10 e5, PS) | – | 52% | 82% | – |
| TCTCATTCATCTGGGCCCTG (sugars e5 d10 e5, PS) | – | 65% | 78% | – |
| CACTTGATCTGGGACCCAAA (sugars e5 d10 e5, PS) | – | 41% | 92% | – |
| TCTCCTGTTTGATGGGT (sugars e3 d10 e4, PS) | – | 41% | 63% | – |
| AACTTCTTCTGGACCCATCG (sugars e5 d10 e5, PS) | 28% | – | – | – |
| AGTCTTCCTTCTCCTCCACC (sugars e5 d10 e5, PS) | – | 69% | 84% | – |
| GCTAGAGGCTGAGTTCTGCT (sugars e5 d10 e5, PS) | – | 85% and 87% | 90% and 92% | – |
| CAGGACCCACTGGAGCACTG (sugars e2 d13 e5, PS) | 78% | – | – | – |
| GCATTGCCACTCCCATTCTT (sugars e5 d10 e5, PS) | – | – | – | 94% and 91% and 95% |
| CCAGGTAAGGCCGTATGCCT (sugars e3 d14 e3, PS) | 71% | – | – | – |
| AGCCCTCCTCGAAGATCACC (sugars e5 d10 e5, PS) | 39% | – | – | – |
| TGCCACAGGGCCCTTTCCAG (sugars e5 d10 e5, PS) | – | 11% | 67% | – |
| AGACATCAGGTACTCCCTCA (sugars e5 d10 e5, PS) | 35% | – | – | – |
| CAGCTGGATGGGAAAGTAGT (sugars e5 d10 e5, PS) | 21% | – | – | – |

| Sequence | target mRNA inhibition (HepG2, 0.12 µM) | target mRNA inhibition (HepG2, 2.5 µM) | target mRNA inhibition (HepG2, 10 µM) | target mRNA inhibition (HepG2, 20 µM) |
| --- | --- | --- | --- | --- |
| GTCCTAGTGCCCCAGGG (sugars e3 d10 e4, PS) | – | 76% and 86% | 93% and 95% | – |
| CGCGCAGGACCCCGGAGTAG (sugars e3 d14 e3, PS) | 69% | – | – | – |
| ACCACAGCGATAATCACACA (sugars e5 d10 e5, PS) | – | 54% | 89% | – |
| AAGTGACAAAGTCTATCAGG (sugars e5 d10 e5, PS) | – | 61% | 87% | – |
| TGGAGCTCAGAGACTCAGCC (sugars e3 d14 e3, PS) | 76% | – | – | – |
| CTGACACACAATATCCATGG (sugars e5 d10 e5, PS) | – | 76% and 57% | 93% and 85% | – |
| ATCACAGAGCTTGGTTCATC (sugars e5 d10 e5, PS) | – | 61% and 44% | 93% and 85% | – |
| GCAGATGGACAGGTGATTCT (sugars e5 d10 e5, PS) | – | 69% | 91% | – |
| CCAGCCCCCAGGTGTCGGAG (sugars e5 d10 e5, PS) | 50% | – | – | – |
| CAGCACTAATTTTTACAACT (sugars e5 d10 e5, PS) | – | 86% | 95% | – |
| TTAAAAAAGACCTAACATTG (sugars e5 d10 e5, PS) | 0% | – | – | – |
| CTGGTCCAGGGAGAGACCAA (sugars e5 d10 e5, PS) | 25% | – | – | – |
| CTGCAGGCCACTCCCAGTAC (sugars e5 d10 e5, PS) | 40% | – | – | – |
| GCCATCATACTAGACTATGC (sugars e5 d10 e5, PS) | – | 88% and 81% | 91% and 90% | – |
| CCTCCAGACATCAGGTACTC (sugars e5 d10 e5, PS) | 29% | – | – | – |
| CGCGCAGGACCCCGGAGTAG (sugars e5 d10 e5, PS) | 74% | – | – | – |
| GGAGGAGTTCTCGAATATCC (sugars e5 d10 e5, PS) | – | 84% | 74% | – |
| CACACAGCCCAGTTTCGGAC (sugars e5 d10 e5, PS) | 24% | – | – | – |
| ATGACCTTGGGTCAGAGGAA (sugars e5 d10 e5, PS) | – | 61% | 46% | – |
| CCAATGCACCTTGTATTAAA (sugars e5 d10 e5, PS) | – | 72% | 92% | – |
| TCTTTTAAATAACCCACAGA (sugars e5 d10 e5, PS) | 10% | – | – | – |
| GATGGCACTGCAGGCCACTC (sugars e5 d10 e5, PS) | 28% | – | – | – |

| Sequence | target mRNA inhibition (HepG2, 0.12 µM) | target mRNA inhibition (HepG2, 2.5 µM) | target mRNA inhibition (HepG2, 10 µM) | target mRNA inhibition (HepG2, 20 µM) |
| --- | --- | --- | --- | --- |
| GACCTATTGAGCCAGGTGAC (sugars e5 d10 e5, PS) | 36% | – | – | – |
| AGGCCACAGTGGCAACAGAG (sugars e5 d10 e5, PS) | 54% | – | – | – |
| GGCAGATAACCACAGCGATA (sugars e5 d10 e5, PS) | – | 75% | 84% | – |
| GGACAGCTGTGATGACTTCC (sugars e5 d10 e5, PS) | – | 55% | 76% | – |
| TTTCTAGGGAAGCATGTGCA (sugars e5 d10 e5, PS) | – | 67% and 68% | 90% and 88% | – |
| GAGTAAGGGTATTCTGCTCA (sugars e5 d10 e5, PS) | – | – | 91% and 93% and 96% | – |
| GGTTCTTGTCCTGGTCCCAG (sugars e5 d10 e5, PS) | – | 75% and 77% | 90% and 94% | – |
| GTTCCTGGTGGTCAGCAGGT (sugars e5 d10 e5, PS) | 63% | – | – | – |
| AGTTTCACAAAGCCCTTGCG (sugars e5 d10 e5, PS) | 25% | – | – | – |
| GTTCTTGTCCTGGTCCCAGT (sugars e5 d10 e5, PS) | – | 83% and 68% | 95% and 93% | – |
| GTTTGCTCAGTTCTTCCAAC (sugars e5 d10 e5, PS) | – | 83% and 78% | 94% and 90% | – |
| GTCAGCAGGTTGTGTGTCTT (sugars e5 d10 e5, PS) | 64% and 59% | 30% | 76% | 93% |
| ACTCAAAAATATACATGCTC (sugars e5 d10 e5, PS) | – | 67% | 92% | – |
| TCCCCTTGGCAGAGAAACTG (sugars e5 d10 e5, PS) | 47% | – | – | – |
| GGTCTTTTTGGCTGCCCTGC (sugars e5 d10 e5, PS) | – | 81% and 84% | 87% and 90% | – |
| AGCCTGGATGGTGGTTGCAA (sugars e5 d10 e5, PS) | – | 73% | 78% | – |
| GCTGCATCCATGTCATCAGC (sugars e5 d10 e5, PS) | 43% | – | – | – |
| GTTCTTTTGGAAGGGTGGAG (sugars e5 d10 e5, PS) | 52% | – | – | – |
| CTGGTGGTCAGCAGGTTGTG (sugars e5 d10 e5, PS) | 57% | – | – | – |
| GTGATGACTTCCCAGGG (sugars e3 d10 e4, PS) | – | 66% and 82% | 67% and 84% | – |
| CAAACAGATTAAAGTTGCTC (sugars e5 d10 e5, PS) | – | 78% and 72% | 90% and 91% | – |
| AAATCACAGAATTATCAGCA (sugars e5 d10 e5, PS) | – | 57% | 92% | – |

| Sequence | target mRNA inhibition (HepG2, 0.12 µM) | target mRNA inhibition (HepG2, 2.5 µM) | target mRNA inhibition (HepG2, 10 µM) | target mRNA inhibition (HepG2, 20 µM) |
| --- | --- | --- | --- | --- |
| CTGCGCGATTCACTGAGGAC (sugars e5 d10 e5, PS) | – | 78% | 71% | – |
| CACCAGGGCCTCCATGTACA (sugars e2 d13 e5, PS) | 69% | – | – | – |
| GTTTACTGCATAGCTGAGCA (sugars e5 d10 e5, PS) | – | 69% and 82% | 79% and 96% | – |
| GCAATGTTGCCATCATA (sugars e3 d10 e4, PS) | – | 69% and 76% | 90% and 95% | – |
| GGTGATGGGCTTGGAGTAGG (sugars e5 d10 e5, PS) | 36% | – | – | – |
| AATAACCCACAGACACCCAT (sugars e5 d10 e5, PS) | 0% | – | – | – |
| GACAAGCGACAGCCCTGTGC (sugars e5 d10 e5, PS) | – | 75% | 79% | – |
| CACAATGGGAATGGTATCGC (sugars e5 d10 e5, PS) | – | 59% | 91% | – |
| CCCACTGGGACATCTGGCCC (sugars e5 d10 e5, PS) | – | 66% | 88% | – |
| TCAGAGACTCAGCCGCACCC (sugars e5 d10 e5, PS) | 43% and 55% | – | – | – |
| GACAGGACCCACTGGAGCAC (sugars e3 d14 e3, PS) | 58% | – | – | – |
| GGAAAGGCACAGGCTTTGGG (sugars e5 d10 e5, PS) | – | 57% and 66% | 92% and 97% | – |
| AGGTAAGGCCGTATGCCTGG (sugars e3 d14 e3, PS) | 67% | – | – | – |
| GGGTTATTGCAACCACTAGG (sugars e5 d10 e5, PS) | – | 74% | 80% | – |
| TTTGAAATCCAATGCACCTT (sugars e5 d10 e5, PS) | – | 63% | 96% | – |
| GGGTCATTTTGGAGACCACA (sugars e5 d10 e5, PS) | – | 59% | 83% | – |
| TCATACTAGACTATGCAGCC (sugars e5 d10 e5, PS) | – | 72% | 85% | – |
| TAGCTCTCAGTGAAGCTGGA (sugars e5 d10 e5, PS) | – | 84% and 81% | 90% and 91% | – |
| CTTATCCTTGAGGGTCTCAT (sugars e5 d10 e5, PS) | – | 56% | 77% | – |
| AGGGCACCAGCCCCCAGGTG (sugars e5 d10 e5, PS) | 29% | – | – | – |
| AGCACTGACATGGTAAGTCC (sugars e5 d10 e5, PS) | – | 75% and 68% | 93% and 91% | – |
| GCAGGTTGTGTGTCTTCACC (sugars e2 d13 e5, PS) | 56% | – | – | – |

Source: the OligoGym collection
